pIC50: −log10 of the molar value.

Here are results for 40 compounds from patent US11427590B2, “Small molecule inhibitors of neutral sphingomyelinase 2 (nSMase2) for the treatment of neurodegenerative diseases” (The Johns Hopkins University, priority 2017, dated 2022).

human nSMase2, sequence (Q9NY59 whole entry): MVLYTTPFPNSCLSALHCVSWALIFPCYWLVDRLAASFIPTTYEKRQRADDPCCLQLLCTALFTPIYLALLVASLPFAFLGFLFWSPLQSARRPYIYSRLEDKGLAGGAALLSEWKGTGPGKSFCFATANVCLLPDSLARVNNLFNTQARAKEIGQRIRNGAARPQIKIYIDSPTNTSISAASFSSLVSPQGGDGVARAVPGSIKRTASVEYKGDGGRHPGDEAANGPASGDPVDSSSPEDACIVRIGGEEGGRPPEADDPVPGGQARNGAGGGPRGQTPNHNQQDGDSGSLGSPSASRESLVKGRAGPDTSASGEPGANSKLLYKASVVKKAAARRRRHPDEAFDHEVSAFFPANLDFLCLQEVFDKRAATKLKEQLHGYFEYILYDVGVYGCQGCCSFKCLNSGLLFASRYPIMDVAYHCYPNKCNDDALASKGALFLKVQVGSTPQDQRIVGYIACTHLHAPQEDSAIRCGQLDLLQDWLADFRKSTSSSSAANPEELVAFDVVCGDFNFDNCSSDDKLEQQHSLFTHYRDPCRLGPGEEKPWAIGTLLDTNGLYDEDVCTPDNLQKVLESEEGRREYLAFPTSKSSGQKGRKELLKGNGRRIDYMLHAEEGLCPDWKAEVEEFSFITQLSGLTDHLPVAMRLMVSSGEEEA

One series has as its target human nSMase2 (Homo sapiens (Human), UniProt Q9NY59). The series can be described thus: Human nSMase2 fluorescence-based activity assay. The series is classed as biochemical. Particulars: inhibition of nSMase2, IC50 category A-D; read-out: Activity*. From the text: Figuera-Losada, et al. Lysate of cells expressing recombinant nSMase2 is used to catalyze the hydrolysis of sphingomyelin (SM) to ceramide and phosphorylcholine.
With `COc1ccc(-n2c(C)nc3c(N4CC[C@@H](NC(C)=O)C4)nc(C)nc32)cc1OC` [3-PROV], the pIC50 was under 4.00. For `COc1ccc(-c2c(C)sc3c(N4CC[C@@H](NC(C)=O)C4)nc(Cl)nc23)cc1OC` [25-PROV], the pIC50 was under 4.00. The same measure, in the same setting: the result for `COc1ccc(-c2csc3c(N4CC[C@@H](NC(C)=O)C4)nc(Cl)nc23)cc1OC` [24-PROV] reads under 4.00; that for `COc1ccc(-n2cnc3c(N4CC[C@@H](NC(C)=O)C4)ncnc32)cc1OC` [6-PROV], under 4.00; that for `COc1ccc(-c2c3nc(C)nc(N4CC[C@@H](NC(C)=O)C4)c3nn2C)cc1OC` [12-PROV], under 4.00.

For `COc1ccc(-n2cnc3c(N4CC[C@@H](NC(C)=O)C4)nc(C)nc32)cc1OC` [2-PROV], the pIC50 was under 4.00.

As to `COc1ccc(-c2c(C)nn3c(N4CC[C@@H](NC(C)=O)C4)cc(C)nc23)cc1OC` [4-PROV], the pIC50 was under 4.00. As to `COc1ccc(-c2c(C)sc3c(N4CC[C@@H](NC(C)=O)C4)nc(C)nc23)cc1OC` [29a-PROV], the pIC50 is under 4.00.

In the case of `COc1ccc(-c2scc3c(N4CC[C@@H](NC(C)=O)C4)nc(Cl)nc23)cc1OC` [26-PROV], the pIC50 was under 4.00. Consider `COc1ccc(-c2c(C)nn3c(N4CC[C@@H](NC(C)=O)C4)nc(C)nc23)cc1OC` [36-PROV], for which the pIC50 is under 4.00. Take `COc1ccc(-c2scc3c(N4CC[C@@H](NC(C)=O)C4)nc(C)nc23)cc1OC` [29b-PROV]: the pIC50 is under 4.00. With `COc1ccc(-c2c(C)oc3c(N4CC[C@@H](NC(C)=O)C4)cc(C)nc23)cc1OC` [8-PROV], the pIC50 is under 4.00. Turning to `COc1ccc(-c2csc3c(N4CC[C@@H](NC(C)=O)C4)ncnc23)cc1OC` [27-PROV], the pIC50 was under 4.00. On to `COc1ccc(-n2c(C)nc3c(N4CC[C@@H](NC(C)=O)C4)ncnc32)cc1OC` [5-PROV], for which the pIC50 was under 4.00. As to `COc1ccc(-c2csc3c(N4CC[C@@H](NC(C)=O)C4)nc(C)nc23)cc1OC` [30-PROV], the pIC50 is under 4.00. As for `COc1ccc(-c2c(C)sc3c(N4CC[C@@H](NC(C)=O)C4)ncnc23)cc1OC` [28-PROV], the pIC50 is under 4.00.

On to `COc1ccc(-c2nn(C)c3c(N4CC[C@@H](NC(C)=O)C4)nc(C)nc23)cc1OC` [13-PROV], for which the pIC50 is under 4.00. As to `COc1ccc(-n2ncc3c(N4CC[C@@H](NC(C)=O)C4)nc(C)nc32)cc1OC` [10-PROV], the pIC50 is under 4.00.

The same series, now with this note: inhibition of nSMase2; read-out: IC50.
For the compound `CC(=O)Nc1cccc(-c2c(C)nc3c(N4CC[C@@H](NC(C)=O)C4)cc(C)nn23)c1` [22-PROV], the pIC50 is under 6.00. As for `COc1cccc(-c2c(C)nc3c(N4CC[C@@H](NC(C)=O)C4)cc(Cl)nn23)c1` [14-PROV], the pIC50 is under 4.00.

As to `CC(=O)N[C@@H]1CCN(c2cc(C)nn3c(I)c(C)nc23)C1` [23-PROV], the pIC50 is under 5.00. On the same count and under the same terms, the result for `COc1cccc(-c2c(C)nc3c(N4CC[C@@H](NC(C)=O)C4)cc(C)nn23)c1` [20-PROV] reads under 6.00. For `CC(=O)N[C@@H]1CCN(c2cc(C)nn3c(-c4ccc(O)cc4)c(C)nc23)C1` [47-PROV], the pIC50 is at least 6.00. Same read-out and setting: the result for `CC(=O)N[C@@H]1CCN(c2cc(C)nn3c(-c4ccc5c(c4)OCO5)c(C)nc23)C1` [40-PROV] reads at least 6.00.

In the case of `CC(=O)N[C@@H]1CCN(c2ccnn3cc(C)nc23)C1` [15-PROV], the pIC50 is under 5.00. Turning to `CC(=O)N[C@@H]1CCN(c2cc(C)nn3c(-c4cccc(S(C)(=O)=O)c4)c(C)nc23)C1` [42-PROV], the pIC50 is under 6.00. In the case of `COc1ccc(-c2c(C)nc3c(N4CC[C@@H](NC(C)=O)C4)cc(Cl)nn23)cc1` [11-PROV], the pIC50 was under 4.00. For the compound `CC(=O)N[C@@H]1CCN(c2cc(C)nn3c(C)c(C)nc23)C1` [48-PROV], the pIC50 is under 6.00. As for `CC(=O)N[C@@H]1CCN(c2cc(Cl)nn3cc(C)nc23)C1` [9-PROV], the pIC50 is under 4.00. As to `CC(=O)N[C@@H]1CCN(c2cc(Cl)nn3c(-c4ccc(F)cc4)c(C)nc23)C1` [18-PROV], the pIC50 was under 4.00.

Take `COc1cc(N2CC[C@@H](NC(C)=O)C2)c2nc(C)c(-c3ccc(OC)c(OC)c3)n2n1` [38-PROV]: the pIC50 is under 6.00. Regarding `CC(=O)Nc1cccc(-c2c(C)nc3c(N4CC[C@@H](NC(C)=O)C4)cc(Cl)nn23)c1` [19-PROV], the pIC50 was under 4.00.

Tested on in a further series: not listed separately
The series can be described thus: Phase I metabolic stability in mouse liver microsomes. The series is classed as in vitro ADME. Particulars: 37° C. The method, then: (§1) Phase I metabolic stability in both mouse and human liver microsomes was performed as described previously. Rais et al. Briefly, compounds are spiked in liver microsomes (mouse, human) and incubated in an orbital shaker at 37° C. […] Compound disappearance is monitored over time using LC/MS/MS.
Regarding `CC(=O)N[C@@H]1CCN(c2cc(C)nn3c(-c4cccs4)c(C)nc23)C1` [compound 13, (R)—N-(1-(2,6-dimethyl-3-(thiophen-2-yl)imidazo[1,2-b]pyridazin-8-yl)pyrrolidin-3-yl)acetamide], the “Mouse Liver Microsome (+) NADPH % Remaining at 60 min” value worked out at 28 ± 2%. Consider `COc1ccc(-c2c(C)nc3c(N4CC[C@@H](NS(=O)(=O)c5ccc(Cl)cc5)C4)cc(C)nn23)cc1OC` [compound 29, (R)-4-chloro-N-(1-(3-(3,4-dimethoxyphenyl)-2,6-dimethylimidazo[1,2-b]pyridazin-8-yl)pyrrolidin-3-yl)benzenesulfonamide], for which the “Mouse Liver Microsome (+) NADPH % Remaining at 60 min” value amounted to 7 ± 2%. Regarding `COc1ccc(-c2c(C)nc3c(N4CC[C@@H](NC(=O)C(F)(F)c5ccccc5)C4)cc(C)nn23)cc1OC` [compound 37, (R)—N-(1-(3-(3,4-dimethoxyphenyl)-2,6-dimethylimidazo[1,2-b]pyridazin-8-yl)pyrrolidin-3-yl)-2,2-difluoro-2-phenylacetamide], the “Mouse Liver Microsome (+) NADPH % Remaining at 60 min” value was found to be 6 ± 1%. In the case of `COc1ccc(-c2c(C)nc3c(N4CC[C@@H](NC(=O)C(F)(F)F)C4)cc(C)nn23)cc1OC` [compound 35, (R)—N-(1-(3-(3,4-dimethoxyphenyl)-2,6-dimethylimidazo[1,2-b]pyridazin-8-yl)pyrrolidin-3-yl)-2,2,2-trifluoroacetamide], the “Mouse Liver Microsome (+) NADPH % Remaining at 60 min” value is recorded as 117 ± 8%.

`CC(=O)N[C@@H]1CCN(c2cc(C)nn3c(-c4ccc(OC(F)(F)F)cc4)c(C)nc23)C1` [compound 17, (R)—N-(1-(2,6-dimethyl-3-(4-(trifluoromethoxy)phenyl)imidazo[1,2-b]pyridazin-8-yl)pyrrolidin-3-yl)acetamide]: the “Mouse Liver Microsome (+) NADPH % Remaining at 60 min” value is reported as 72 ± 6%. Same read-out and setting: the same measure for `COc1ccc(-c2c(C)nc3c(N4CC[C@@H](NS(=O)(=O)c5ccc(C)cc5)C4)cc(C)nn23)cc1OC` [compound 22, (R)—N-(1-(3-(3,4-dimethoxyphenyl)-2,6-dimethylimidazo[1,2-b]pyridazin-8-yl)pyrrolidin-3-yl)-4-methylbenzenesulfonamide]: 2 ± 1%.

In the case of `COc1ccc(-c2c(C)nc3c(N4CC[C@@H](NS(=O)(=O)c5ccc(C(C)=O)cc5)C4)cc(C)nn23)cc1OC` [compound 23, (R)-4-acetyl-N-(1-(3-(3,4-dimethoxyphenyl)-2,6-dimethylimidazo[1,2-b]pyridazin-8-yl)pyrrolidin-3-yl)benzenesulfonamide], the “Mouse Liver Microsome (+) NADPH % Remaining at 60 min” value came out at 5 ± 1%. For the compound `COc1ccc(-c2c(C)nc3c(N4CC[C@@H](NS(=O)(=O)c5ccccc5)C4)cc(C)nn23)cc1OC` [compound 28, (R)—N-(1-(3-(3,4-dimethoxyphenyl)-2,6-dimethylimidazo[1,2-b]pyridazin-8-yl)pyrrolidin-3-yl)benzenesulfonamide], the “Mouse Liver Microsome (+) NADPH % Remaining at 60 min” value was determined as 20 ± 1%.

Tested on in the next series: not listed separately
In words: Phase I metabolic stability in human liver microsomes. It is filed as in vitro ADME. Particulars: 37° C. Here is the method:
as §1
With `CC(=O)N[C@@H]1CCN(c2cc(C)nn3c(-c4cccs4)c(C)nc23)C1` [compound 13, (R)—N-(1-(2,6-dimethyl-3-(thiophen-2-yl)imidazo[1,2-b]pyridazin-8-yl)pyrrolidin-3-yl)acetamide], the “Human Liver Microsome (+) NADPH Remaining at 60 min” value was found to be 50 ± 4%. For `COc1ccc(-c2c(C)nc3c(N4CC[C@@H](NS(=O)(=O)c5ccc(Cl)cc5)C4)cc(C)nn23)cc1OC` [compound 29, (R)-4-chloro-N-(1-(3-(3,4-dimethoxyphenyl)-2,6-dimethylimidazo[1,2-b]pyridazin-8-yl)pyrrolidin-3-yl)benzenesulfonamide], the “Human Liver Microsome (+) NADPH Remaining at 60 min” value is recorded as 32 ± 6%. Take `COc1ccc(-c2c(C)nc3c(N4CC[C@@H](NC(=O)C(F)(F)c5ccccc5)C4)cc(C)nn23)cc1OC` [compound 37, (R)—N-(1-(3-(3,4-dimethoxyphenyl)-2,6-dimethylimidazo[1,2-b]pyridazin-8-yl)pyrrolidin-3-yl)-2,2-difluoro-2-phenylacetamide]: the “Human Liver Microsome (+) NADPH Remaining at 60 min” value was determined as 20 ± 2%. As to `COc1ccc(-c2c(C)nc3c(N4CC[C@@H](NC(=O)C(F)(F)F)C4)cc(C)nn23)cc1OC` [compound 35, (R)—N-(1-(3-(3,4-dimethoxyphenyl)-2,6-dimethylimidazo[1,2-b]pyridazin-8-yl)pyrrolidin-3-yl)-2,2,2-trifluoroacetamide], the “Human Liver Microsome (+) NADPH Remaining at 60 min” value was 113 ± 8%. Take `CC(=O)N[C@@H]1CCN(c2cc(C)nn3c(-c4ccc(OC(F)(F)F)cc4)c(C)nc23)C1` [compound 17, (R)—N-(1-(2,6-dimethyl-3-(4-(trifluoromethoxy)phenyl)imidazo[1,2-b]pyridazin-8-yl)pyrrolidin-3-yl)acetamide]: the “Human Liver Microsome (+) NADPH Remaining at 60 min” value is 114 ± 4%. With `COc1ccc(-c2c(C)nc3c(N4CC[C@@H](NS(=O)(=O)c5ccc(C)cc5)C4)cc(C)nn23)cc1OC` [compound 22, (R)—N-(1-(3-(3,4-dimethoxyphenyl)-2,6-dimethylimidazo[1,2-b]pyridazin-8-yl)pyrrolidin-3-yl)-4-methylbenzenesulfonamide], the “Human Liver Microsome (+) NADPH Remaining at 60 min” value is on record as 29 ± 1%.

As to `COc1ccc(-c2c(C)nc3c(N4CC[C@@H](NS(=O)(=O)c5ccc(C(C)=O)cc5)C4)cc(C)nn23)cc1OC` [compound 23, (R)-4-acetyl-N-(1-(3-(3,4-dimethoxyphenyl)-2,6-dimethylimidazo[1,2-b]pyridazin-8-yl)pyrrolidin-3-yl)benzenesulfonamide], the “Human Liver Microsome (+) NADPH Remaining at 60 min” value is 12 ± 3%. As for `COc1ccc(-c2c(C)nc3c(N4CC[C@@H](NS(=O)(=O)c5ccccc5)C4)cc(C)nn23)cc1OC` [compound 28, (R)—N-(1-(3-(3,4-dimethoxyphenyl)-2,6-dimethylimidazo[1,2-b]pyridazin-8-yl)pyrrolidin-3-yl)benzenesulfonamide], the “Human Liver Microsome (+) NADPH Remaining at 60 min” value turned out to be 43 ± 6%.
